According to patent US8137705B2 (priority 2005, dated 2012):

Legend:
Type in all cases: cell-based
[1] = system: E. coli O111:NM; assay: E. coli O111:NM counts in water containing rumen content or feces treated with chemical combinations; conditions: 21° C.; for E. coli O111:NM counts (log10 cfu/ml) at min 0: 0 min; for E. coli O111:NM counts (log10 cfu/ml) at min 2: 2 min; for E. coli O111:NM counts (log10 cfu/ml) at min 5: 5 min; for E. coli O111:NM counts (log10 cfu/ml) at min 10: 10 min; for E. coli O111:NM counts (log10 cfu/ml) at min 20: 20 min; for E. coli O111:NM counts (log10 cfu/ml) at min 30: 30 min; for E. coli O111:NM counts (log10 cfu/ml) at min 60: 60 min; for E. coli O111:NM counts (log10 cfu/ml) at min 120: 120 min
[2] = system: E. coli O26:H11; assay: E. coli O26:H11 counts in water containing rumen content or feces treated with chemical combinations; conditions: 21° C.; for E. coli O26:H11 counts (log10 cfu/ml) at min: 0: 0 min; for E. coli O26:H11 counts (log10 cfu/ml) at min: 2: 2 min; for E. coli O26:H11 counts (log10 cfu/ml) at min: 5: 5 min; for E. coli O26:H11 counts (log10 cfu/ml) at min: 10: 10 min; for E. coli O26:H11 counts (log10 cfu/ml) at min: 20: 20 min; for E. coli O26:H11 counts (log10 cfu/ml) at min: 30: 30 min; for E. coli O26:H11 counts (log10 cfu/ml) at min: 60: 60 min; for E. coli O26:H11 counts (log10 cfu/ml) at min: 120: 120 min
[3] = system: E. coli O157:H7; assay: E. coli O157:H7 counts in water containing rumen content or feces treated with chemicals or chemical combinations; conditions: for E. coli O157:H7 counts (log10 cfu/ml) at min 0 / E. coli O157:H7 counts (log10 cfu/ml) at min 2 / E. coli O157:H7 counts (log10 cfu/ml) at min 5 / E. coli O157:H7 counts (log10 cfu/ml) at min 10 / E. coli O157:H7 counts (log10 cfu/ml) at min 20 / E. coli O157:H7 counts (log10 cfu/ml) at min 30 / E. coli O157:H7 counts (log10 cfu/ml) at min 60 / E. coli O157:H7 counts (log10 cfu/ml) at min 120: 21° C.; for E. coli O157:H7 counts (log10 cfu/ml) at min 0: 0 min; for E. coli O157:H7 counts (log10 cfu/ml) at min 2: 2 min; for E. coli O157:H7 counts (log10 cfu/ml) at min 5: 5 min; for E. coli O157:H7 counts (log10 cfu/ml) at min 10: 10 min; for E. coli O157:H7 counts (log10 cfu/ml) at min 20: 20 min; for E. coli O157:H7 counts (log10 cfu/ml) at min 30: 30 min; for E. coli O157:H7 counts (log10 cfu/ml) at min 60: 60 min; for E. coli O157:H7 counts (log10 cfu/ml) at min 120: 120 min
[4] = water containing feces (20:1, v/w)
[5] = water containing rumen content (10:1, v/w)

O=C([O-])c1ccccc1.[Na+] [0.1% sodium benzoate, sodium benzoate]
5.4 log10 cfu/ml: E. coli O111:NM counts (log10 cfu/ml) at min 60 [1, 5] | E. coli O26:H11 counts (log10 cfu/ml) at min: 2 [2, 4] | E. coli O26:H11 counts (log10 cfu/ml) at min: 10 [2, 4] | E. coli O26:H11 counts (log10 cfu/ml) at min: 30 [2, 4] | E. coli O26:H11 counts (log10 cfu/ml) at min: 120 [2, 4] | E. coli O26:H11 counts (log10 cfu/ml) at min: 5 [2, 5] | E. coli O26:H11 counts (log10 cfu/ml) at min: 60 [2, 5] | E. coli O157:H7 counts (log10 cfu/ml) at min 5 [3, 4] | E. coli O157:H7 counts (log10 cfu/ml) at min 30 [3, 4]
5.5 log10 cfu/ml: E. coli O111:NM counts (log10 cfu/ml) at min 30 [1, 4] | E. coli O111:NM counts (log10 cfu/ml) at min 60 [1, 4] | E. coli O111:NM counts (log10 cfu/ml) at min 5 [1, 5] | E. coli O111:NM counts (log10 cfu/ml) at min 30 [1, 5] | E. coli O111:NM counts (log10 cfu/ml) at min 120 [1, 5] | E. coli O26:H11 counts (log10 cfu/ml) at min: 0 [2, 4] | E. coli O26:H11 counts (log10 cfu/ml) at min: 5 [2, 4] | E. coli O26:H11 counts (log10 cfu/ml) at min: 20 [2, 4] | E. coli O26:H11 counts (log10 cfu/ml) at min: 60 [2, 4] | E. coli O26:H11 counts (log10 cfu/ml) at min: 2 [2, 5] | E. coli O26:H11 counts (log10 cfu/ml) at min: 10 [2, 5] | E. coli O26:H11 counts (log10 cfu/ml) at min: 20 [2, 5] | E. coli O26:H11 counts (log10 cfu/ml) at min: 30 [2, 5] | E. coli O26:H11 counts (log10 cfu/ml) at min: 120 [2, 5] | E. coli O157:H7 counts (log10 cfu/ml) at min 20 [3, 4] | E. coli O157:H7 counts (log10 cfu/ml) at min 60 [3, 4]
6.1 log10 cfu/ml: E. coli O157:H7 counts (log10 cfu/ml) at min 120 [3, 5]
6.0 log10 cfu/ml: E. coli O157:H7 counts (log10 cfu/ml) at min 2 [3, 5] | E. coli O157:H7 counts (log10 cfu/ml) at min 5 [3, 5] | E. coli O157:H7 counts (log10 cfu/ml) at min 20 [3, 5] | E. coli O157:H7 counts (log10 cfu/ml) at min 60 [3, 5]
5.7 log10 cfu/ml: E. coli O111:NM counts (log10 cfu/ml) at min 10 [1, 4] | E. coli O157:H7 counts (log10 cfu/ml) at min 0 [3, 4]
5.6 log10 cfu/ml: E. coli O111:NM counts (log10 cfu/ml) at min 0 [1, 4] | E. coli O111:NM counts (log10 cfu/ml) at min 2 [1, 4] | E. coli O111:NM counts (log10 cfu/ml) at min 5 [1, 4] | E. coli O111:NM counts (log10 cfu/ml) at min 20 [1, 4] | E. coli O111:NM counts (log10 cfu/ml) at min 120 [1, 4] | E. coli O111:NM counts (log10 cfu/ml) at min 0 [1, 5] | E. coli O111:NM counts (log10 cfu/ml) at min 2 [1, 5] | E. coli O111:NM counts (log10 cfu/ml) at min 10 [1, 5] | E. coli O111:NM counts (log10 cfu/ml) at min 20 [1, 5] | E. coli O26:H11 counts (log10 cfu/ml) at min: 0 [2, 5] | E. coli O157:H7 counts (log10 cfu/ml) at min 2 [3, 4] | E. coli O157:H7 counts (log10 cfu/ml) at min 10 [3, 4] | E. coli O157:H7 counts (log10 cfu/ml) at min 120 [3, 4]
5.9 log10 cfu/ml: E. coli O157:H7 counts (log10 cfu/ml) at min 0 [3, 5] | E. coli O157:H7 counts (log10 cfu/ml) at min 10 [3, 5] | E. coli O157:H7 counts (log10 cfu/ml) at min 30 [3, 5]

CCCC(=O)O [0.5% butyric acid, butyric acid]
5.9 log10 cfu/ml: E. coli O157:H7 counts (log10 cfu/ml) at min 0 [3, 5] | E. coli O157:H7 counts (log10 cfu/ml) at min 2 [3, 5] | E. coli O157:H7 counts (log10 cfu/ml) at min 5 [3, 5]
5.6 log10 cfu/ml: E. coli O111:NM counts (log10 cfu/ml) at min 0 [1, 4] | E. coli O111:NM counts (log10 cfu/ml) at min 2 [1, 4] | E. coli O111:NM counts (log10 cfu/ml) at min 10 [1, 4] | E. coli O111:NM counts (log10 cfu/ml) at min 20 [1, 4] | E. coli O111:NM counts (log10 cfu/ml) at min 30 [1, 4] | E. coli O111:NM counts (log10 cfu/ml) at min 60 [1, 4] | E. coli O111:NM counts (log10 cfu/ml) at min 120 [1, 4] | E. coli O111:NM counts (log10 cfu/ml) at min 10 [1, 5] | E. coli O111:NM counts (log10 cfu/ml) at min 20 [1, 5] | E. coli O111:NM counts (log10 cfu/ml) at min 120 [1, 5] | E. coli O157:H7 counts (log10 cfu/ml) at min 60 [3, 5]
6.1 log10 cfu/ml: E. coli O157:H7 counts (log10 cfu/ml) at min 10 [3, 4] | E. coli O157:H7 counts (log10 cfu/ml) at min 20 [3, 4] | E. coli O157:H7 counts (log10 cfu/ml) at min 30 [3, 4]
5.2 log10 cfu/ml: E. coli O26:H11 counts (log10 cfu/ml) at min: 30 [2, 4] | E. coli O26:H11 counts (log10 cfu/ml) at min: 60 [2, 4] | E. coli O26:H11 counts (log10 cfu/ml) at min: 30 [2, 5]
5.1 log10 cfu/ml: E. coli O26:H11 counts (log10 cfu/ml) at min: 120 [2, 5]
5.3 log10 cfu/ml: E. coli O26:H11 counts (log10 cfu/ml) at min: 5 [2, 5]
5.5 log10 cfu/ml: E. coli O111:NM counts (log10 cfu/ml) at min 5 [1, 4] | E. coli O111:NM counts (log10 cfu/ml) at min 0 [1, 5] | E. coli O111:NM counts (log10 cfu/ml) at min 2 [1, 5] | E. coli O111:NM counts (log10 cfu/ml) at min 5 [1, 5] | E. coli O111:NM counts (log10 cfu/ml) at min 60 [1, 5] | E. coli O26:H11 counts (log10 cfu/ml) at min: 0 [2, 4] | E. coli O26:H11 counts (log10 cfu/ml) at min: 20 [2, 4]
substantial inactivation: inactivation of E. coli O157:H7 within 20 minutes ([3]; butyric acid >2%, caprylic acid >0.1%, data not shown)
6.0 log10 cfu/ml: E. coli O157:H7 counts (log10 cfu/ml) at min 0 [3, 4] | E. coli O157:H7 counts (log10 cfu/ml) at min 2 [3, 4] | E. coli O157:H7 counts (log10 cfu/ml) at min 5 [3, 4] | E. coli O157:H7 counts (log10 cfu/ml) at min 60 [3, 4] | E. coli O157:H7 counts (log10 cfu/ml) at min 120 [3, 4]
5.0 log10 cfu/ml: E. coli O26:H11 counts (log10 cfu/ml) at min: 120 [2, 4]
5.7 log10 cfu/ml: E. coli O157:H7 counts (log10 cfu/ml) at min 20 [3, 5] | E. coli O157:H7 counts (log10 cfu/ml) at min 120 [3, 5]
5.8 log10 cfu/ml: E. coli O157:H7 counts (log10 cfu/ml) at min 10 [3, 5] | E. coli O157:H7 counts (log10 cfu/ml) at min 30 [3, 5]
5.4 log10 cfu/ml: E. coli O111:NM counts (log10 cfu/ml) at min 30 [1, 5] | E. coli O26:H11 counts (log10 cfu/ml) at min: 2 [2, 4] | E. coli O26:H11 counts (log10 cfu/ml) at min: 5 [2, 4] | E. coli O26:H11 counts (log10 cfu/ml) at min: 10 [2, 4] | E. coli O26:H11 counts (log10 cfu/ml) at min: 0 [2, 5] | E. coli O26:H11 counts (log10 cfu/ml) at min: 2 [2, 5] | E. coli O26:H11 counts (log10 cfu/ml) at min: 10 [2, 5] | E. coli O26:H11 counts (log10 cfu/ml) at min: 20 [2, 5] | E. coli O26:H11 counts (log10 cfu/ml) at min: 60 [2, 5]
